The record followed here is patent publication EP1044015B1, “FORMULATIONS FOR AMYLIN AGONIST PEPTIDES WITH INSULIN” (AMYLIN PHARMACEUTICALS, INC., priority 1998, dated 2008).

The data set is described as follows: Adsorption onto glass container. The format is physicochemical. The conditions noted are these: liquid form. From the text: However, with regard to amylin agonists or amylins which do have such a tendency, a surfactant should be used in their formulation which formulations should then be lyophilized. Surfactants frequently cause denaturation of protein, both of hydrophobic disruption and by salt bridge separation. Relatively low concentrations of surfactant exert a potent denaturing activity, because of the strong interactions between surfactant moieties and the reactive sites on proteins. However, judicious use of this interaction can stabilize proteins against interfacial or surface denaturation. Surfactants which could further stabilize the peptide may optionally be present in the range of about 0.001 to 0.3% (w/v) of the total formulation and include polysorbate 80 (i.e., polyoxyethylene(20) sorbitan monooleate), CHAPS° (i.e., 3-[(3-cholamidopropyl) dimethylammonio] 1-propanesulfonate), Brij° (e.g., Brij 35, which is (polyoxyethylene (23) lauryl ether), poloxamer, or another non-ionic surfactant.

Turning to ^25,28,29Pro-h- amylin [Pramlintide], the “tendency to adsorb onto the glass” value is given as “does not have a tendency to adsorb onto the glass”.
